Reference: PubChem BioAssay (NCI)
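These data come from cells grown in 96-well plates and exposed to compound for 48 hours at five concentrations. GI50 marks 50% less growth. TGI is the concentration that stops growth completely.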

How the values were obtained:
Experiment in all cases: growth of human tumour cells (NCI), 48 h
786-0 renal = system: 786-0 renal
A498 renal = system: A498 renal
A549 NSCLC = system: A549 NSCLC
ACHN renal = system: ACHN renal
BT-549 breast = system: BT-549 breast
CAKI-1 renal = system: CAKI-1 renal
CCRF-CEM leukemia = system: CCRF-CEM leukemia
COLO 205 colon = system: COLO 205 colon
DU-145 prostate = system: DU-145 prostate
EKVX NSCLC = system: EKVX NSCLC
HCC-2998 colon = system: HCC-2998 colon
HCT-116 colon = system: HCT-116 colon
HCT-15 colon = system: HCT-15 colon
HL-60(TB) leukemia = system: HL-60(TB) leukemia
HOP-62 NSCLC = system: HOP-62 NSCLC
HOP-92 NSCLC = system: HOP-92 NSCLC
HS 578T breast = system: HS 578T breast
HT29 colon = system: HT29 colon
IGROV1 ovarian = system: IGROV1 ovarian
KM12 colon = system: KM12 colon
LOX IMVI melanoma = system: LOX IMVI melanoma
M14 melanoma = system: M14 melanoma
MALME-3M melanoma = system: MALME-3M melanoma
MCF7 breast = system: MCF7 breast
MDA-MB-231 breast = system: MDA-MB-231 breast
MDA-MB-435 = system: MDA-MB-435
MOLT-4 leukemia = system: MOLT-4 leukemia
NCI-H226 lung = system: NCI-H226 lung
NCI-H23 lung = system: NCI-H23 lung
NCI-H460 lung = system: NCI-H460 lung
NCI-H522 lung = system: NCI-H522 lung
NCI/ADR-RES ovarian = system: NCI/ADR-RES ovarian
OVCAR-3 ovarian = system: OVCAR-3 ovarian
OVCAR-4 ovarian = system: OVCAR-4 ovarian
OVCAR-5 ovarian = system: OVCAR-5 ovarian
OVCAR-8 ovarian = system: OVCAR-8 ovarian
PC-3 prostate = system: PC-3 prostate
RPMI-8226 leukemia = system: RPMI-8226 leukemia
RXF 393 renal = system: RXF 393 renal
SF-268 CNS = system: SF-268 CNS
SF-295 CNS = system: SF-295 CNS
SF-539 CNS = system: SF-539 CNS
SK-MEL-2 melanoma = system: SK-MEL-2 melanoma
SK-MEL-28 melanoma = system: SK-MEL-28 melanoma
SK-MEL-5 melanoma = system: SK-MEL-5 melanoma
SK-OV-3 ovarian = system: SK-OV-3 ovarian
SN12C renal = system: SN12C renal
SNB-19 CNS = system: SNB-19 CNS
SNB-75 CNS = system: SNB-75 CNS
SW-620 colon = system: SW-620 colon
T-47D breast = system: T-47D breast
TK-10 renal = system: TK-10 renal
UACC-257 melanoma = system: UACC-257 melanoma
UACC-62 melanoma = system: UACC-62 melanoma
UO-31 renal = system: UO-31 renal
U251 CNS = system: U251 CNS

## CCOC(=O)c1nnn(-c2no[n+]([O-])c2-c2ccc(OC)cc2)c1COc1cccc2cccnc12
786-0 renal
  GI50: 2.29 µM
  TGI: 5.24 µM
A498 renal
  GI50: 2.15 µM
  TGI: 8.75 µM
A549 NSCLC
  GI50: 3.87 µM
  TGI: 16.1 µM
ACHN renal
  GI50: 1.7 µM
  TGI: 3.29 µM
BT-549 breast
  GI50: 0.657 µM
  TGI: 3.1 µM
CAKI-1 renal
  GI50: 2.23 µM
  TGI: 6.38 µM
CCRF-CEM leukemia
  GI50: 0.318 µM
  TGI: > 100 µM
COLO 205 colon
  GI50: 2.33 µM
  TGI: 5.5 µM
DU-145 prostate
  GI50: 5.24 µM
  TGI: 17.1 µM
EKVX NSCLC
  GI50: 7.79 µM
  TGI: 35.2 µM
HCC-2998 colon
  GI50: 3.38 µM
  TGI: 9.98 µM
HCT-116 colon
  GI50: 0.391 µM
  TGI: 3.59 µM
HCT-15 colon
  GI50: 2.38 µM
  TGI: 7.03 µM
HL-60(TB) leukemia
  GI50: 1.07 µM
  TGI: 5.31 µM
HOP-62 NSCLC
  GI50: 4.7 µM
  TGI: 25.9 µM
HOP-92 NSCLC
  GI50: 5.09 µM
  TGI: 20.6 µM
HS 578T breast
  GI50: 2.76 µM
  TGI: 13.3 µM
HT29 colon
  GI50: 1.42 µM
  TGI: 3.45 µM
IGROV1 ovarian
  GI50: 4.27 µM
  TGI: 16 µM
KM12 colon
  GI50: 4.32 µM
  TGI: 17.8 µM
LOX IMVI melanoma
  GI50: 0.355 µM
  TGI: 1.44 µM
M14 melanoma
  GI50: 1.69 µM
  TGI: 7.49 µM
MALME-3M melanoma
  GI50: 2.44 µM
  TGI: 6.31 µM
MCF7 breast
  GI50: 1.97 µM
  TGI: 17 µM
MDA-MB-231 breast
  GI50: 2.73 µM
  TGI: 7.98 µM
MDA-MB-435
  GI50: 1.16 µM
  TGI: 5.09 µM
MOLT-4 leukemia
  GI50: 1.91 µM
  TGI: 8.47 µM
NCI-H226 lung
  GI50: 6.3 µM
  TGI: 39.7 µM
NCI-H23 lung
  GI50: 3.79 µM
  TGI: 17.1 µM
NCI-H460 lung
  GI50: 3.29 µM
  TGI: 11.5 µM
NCI-H522 lung
  GI50: 0.51 µM
  TGI: 2.16 µM
NCI/ADR-RES ovarian
  GI50: 3.05 µM
  TGI: 21.9 µM
OVCAR-3 ovarian
  GI50: 2.8 µM
  TGI: 7.05 µM
OVCAR-4 ovarian
  GI50: 2.34 µM
  TGI: 13.3 µM
OVCAR-5 ovarian
  GI50: 2.9 µM
  TGI: 8.21 µM
OVCAR-8 ovarian
  GI50: 2.23 µM
  TGI: 8.03 µM
PC-3 prostate
  GI50: 3.98 µM
  TGI: 16.3 µM
RPMI-8226 leukemia
  GI50: 0.481 µM
  TGI: 3.38 µM
RXF 393 renal
  GI50: 1.77 µM
  TGI: 4.07 µM
SF-268 CNS
  GI50: 3.03 µM
  TGI: 15 µM
SF-295 CNS
  GI50: 3.09 µM
  TGI: 13.7 µM
SF-539 CNS
  GI50: 2.19 µM
  TGI: 6.13 µM
SK-MEL-2 melanoma
  GI50: 1.98 µM
  TGI: 9.95 µM
SK-MEL-28 melanoma
  GI50: 2.22 µM
  TGI: 6.15 µM
SK-MEL-5 melanoma
  GI50: 3.46 µM
  TGI: 12.9 µM
SK-OV-3 ovarian
  GI50: 6.12 µM
  TGI: > 100 µM
SN12C renal
  GI50: 0.638 µM
  TGI: 3.55 µM
SNB-19 CNS
  GI50: 3.25 µM
  TGI: 14 µM
SNB-75 CNS
  GI50: 3.41 µM
  TGI: 14.1 µM
SW-620 colon
  GI50: 0.399 µM
  TGI: 1.8 µM
T-47D breast
  GI50: 4.67 µM
  TGI: 28.8 µM
TK-10 renal
  GI50: 2.59 µM
  TGI: 7.35 µM
UACC-257 melanoma
  TGI: 25.7 µM
UACC-62 melanoma
  GI50: 2.38 µM
  TGI: 12.8 µM
UO-31 renal
  GI50: 2.45 µM
  TGI: 8.2 µM

## CN(C)CCCn1c2c(c3ccc(-c4ccn[nH]4)cc3c1=O)C(=O)c1ccccc1-2
786-0 renal
  GI50: 0.218 µM
  TGI: 1.82 µM
A498 renal
  GI50: 10.6 µM
  TGI: 30.9 µM
A549 NSCLC
  GI50: 0.0578 µM
  TGI: 1.42 µM
ACHN renal
  GI50: 0.0948 µM
  TGI: 1.93 µM
BT-549 breast
  GI50: 3.1 µM
  TGI: 21.1 µM
CCRF-CEM leukemia
  GI50: 0.0291 µM
  TGI: 1.04 µM
COLO 205 colon
  GI50: 4.92 µM
  TGI: 23.7 µM
DU-145 prostate
  GI50: 0.197 µM
  TGI: 10.5 µM
EKVX NSCLC
  GI50: 2.91 µM
  TGI: 20.6 µM
HCC-2998 colon
  GI50: 10 µM
  TGI: 24 µM
HCT-116 colon
  GI50: 0.391 µM
  TGI: 2.23 µM
HCT-15 colon
  GI50: 0.0915 µM
  TGI: 1.48 µM
HL-60(TB) leukemia
  GI50: 0.0346 µM
  TGI: 0.771 µM
HOP-62 NSCLC
  GI50: 0.181 µM
  TGI: 11.6 µM
HOP-92 NSCLC
  GI50: 0.129 µM
  TGI: 10.9 µM
HS 578T breast
  GI50: 4.9 µM
  TGI: 27.1 µM
HT29 colon
  GI50: 0.344 µM
  TGI: 1.99 µM
IGROV1 ovarian
  GI50: 0.583 µM
  TGI: 2.51 µM
KM12 colon
  GI50: 0.527 µM
  TGI: 2.08 µM
LOX IMVI melanoma
  GI50: 0.104 µM
  TGI: 1.46 µM
M14 melanoma
  GI50: 1.65 µM
  TGI: 13.9 µM
MALME-3M melanoma
  GI50: 0.931 µM
  TGI: 2.47 µM
MCF7 breast
  GI50: 0.0378 µM
  TGI: 1.54 µM
MDA-MB-231 breast
  GI50: 1.27 µM
  TGI: 2.84 µM
MDA-MB-435
  GI50: 10.3 µM
  TGI: 23.7 µM
NCI-H226 lung
  GI50: 0.273 µM
  TGI: 1.53 µM
NCI-H23 lung
  GI50: 0.243 µM
  TGI: 1.83 µM
NCI-H460 lung
  GI50: 0.0363 µM
  TGI: 1.55 µM
NCI-H522 lung
  GI50: 0.836 µM
  TGI: 18 µM
NCI/ADR-RES ovarian
  GI50: 1.48 µM
  TGI: 4.76 µM
OVCAR-3 ovarian
  GI50: 6.09 µM
  TGI: 21.5 µM
OVCAR-4 ovarian
  GI50: 1.45 µM
  TGI: 4.06 µM
OVCAR-5 ovarian
  GI50: 1.51 µM
  TGI: 5.47 µM
OVCAR-8 ovarian
  GI50: 0.163 µM
  TGI: 2.27 µM
PC-3 prostate
  GI50: 1.21 µM
  TGI: 2.72 µM
RPMI-8226 leukemia
  GI50: 0.115 µM
  TGI: 1.39 µM
RXF 393 renal
  GI50: 1.66 µM
  TGI: 9.57 µM
SF-268 CNS
  GI50: 1.85 µM
  TGI: 15 µM
SF-295 CNS
  GI50: 0.354 µM
  TGI: 13.6 µM
SF-539 CNS
  GI50: 1.04 µM
  TGI: 6.29 µM
SK-MEL-2 melanoma
  GI50: 18.2 µM
  TGI: 35.8 µM
SK-MEL-28 melanoma
  GI50: 2.01 µM
  TGI: 5.65 µM
SK-MEL-5 melanoma
  GI50: 0.481 µM
  TGI: 16.4 µM
SK-OV-3 ovarian
  GI50: 1.21 µM
  TGI: 11.3 µM
SN12C renal
  GI50: 0.249 µM
  TGI: 10 µM
SNB-19 CNS
  GI50: 0.332 µM
  TGI: 1.82 µM
SNB-75 CNS
  GI50: 1.39 µM
  TGI: 17.3 µM
SW-620 colon
  GI50: 0.204 µM
  TGI: 2.17 µM
T-47D breast
  GI50: 0.627 µM
  TGI: 20.9 µM
TK-10 renal
  GI50: 2.75 µM
  TGI: 18.8 µM
U251 CNS
  GI50: 0.183 µM
  TGI: 1.57 µM
UACC-257 melanoma
  GI50: 12.3 µM
  TGI: 29.1 µM
UACC-62 melanoma
  GI50: 0.718 µM
  TGI: 18.9 µM
UO-31 renal
  GI50: 0.301 µM
  TGI: 1.92 µM
